Assay results taken from PMC5085131, “Cyclic AMP efflux inhibitors as potential therapeutic agents for leukemia” (Oncotarget, 2016).
Where two headings read alike, the source gives them in different places. Blank lines part the entries; values can stand above or below the compound they belong to.

How the values were obtained:
VLA-4 = molecular target: VLA-4; set-up: method as in PMID 18534032; settings: cited from earlier work
B-ALL cell lines [1] = assay: CellTiter-Glo cell viability, all B-ALL cell lines together; type: cell-based, human; settings: for EC50: Homo sapiens, mean of converged EC50s of six B-ALL lines, read-out: Compound EC50, Mean B-ALL (cell viability); for Sensitivity of B-ALL lines compared with U937 cells: cell viability, overnight
Protocol: (§1) Cell viability was determined with the CellTiter-Glo® Luminescent Cell Viability Assay (Promega). Greiner 655083 had 100 μL cRPMI +/− 4×10^4 cells/well, and dose response curves of compounds ranged from 100 μM to 1.53 nM (1% DMSO). Wells with DMSO-only served as negative controls. Samples were incubated overnight, and the assay was completed according to the manufacturer's protocol. Plates were analyzed using a Victor^3V™ 1420 Multilabel Counter (Perkin Elmer).

697 = assay: CellTiter-Glo cell viability; type: cell-based; settings: Homo sapiens; overnight, n = 6, ± SEM; read-out: Compound EC50, 697 (cell viability)
Protocol: as §1

RS4;11 = assay: CellTiter-Glo cell viability; type: cell-based; settings: Homo sapiens, overnight, n = 6, ± SEM, read-out: Compound EC50, RS4;11 (cell viability)
Protocol: as §1

U937 cells [2] = assay: CellTiter-Glo cell viability; type: cell-based; settings: Homo sapiens, U-937; overnight, n = 8, ± SEM, fit top = 100, bottom = 0, hill slope = −1; read-out: Compound EC50, U937 (cell viability)
Protocol: as §1

Sup B15 = assay: CellTiter-Glo cell viability; type: cell-based; settings: Homo sapiens, overnight, n = 6, ± SEM, read-out: Compound EC50, Sup B15 (cell viability)
Protocol: as §1

[3] = set-up: method as in as printed in each cell; settings: previously reported; cited from earlier work
normal human PBMCs = assay: CellTiter-Glo cell viability; type: cell-based; settings: PBMC, overnight, n = 6, ± SEM, read-out: Compound EC50, PBMCs (cell viability)
Protocol: Healthy PBMCs were obtained from volunteers. Mononuclear cells were purified using Mono-Poly resolving medium (MP Biomedicals, cat. 091698049) according to manufacturer's instructions. PBMCs were resuspended in cRPMI and kept on ice prior to use.
as §1

[4] = test system: primary B-ALL patient samples; assay: CellTiter-Glo cell viability of primary ALL patient samples ex vivo; type: cell-based, human; settings: for EC50: Homo sapiens
Protocol: Bone marrow samples were acquired at diagnosis from pediatric B-ALL patients. Mononuclear cells were enriched by centrifugation in Ficoll-Paque (GE Healthcare, cat. 17-1440-02) and aliquoted for storage in liquid nitrogen until use. Samples were thawed in a 37°C water bath, resuspended in 20% FBS cRPMI, and centrifuged to remove freezing medium. Cells were resuspended in conditioned medium (DMEM, 10% FBS, 50 U/ml penicillin-streptomycin, 2 mM L-glutamine) from HS-5 stromal cell cultures.
as §1
For primary ALL patient samples, media consisted of 50% cRPMI, 50% conditioned DMEM from HS-5 stromal cell cultures and compounds. Cell densities ranged from 28,000-68,000 cells/well, and plates were foil-sealed prior to incubation.

U937 cells [5] = assay: MultiCyt 4-Plex apoptosis assay; type: cell-based, human; settings: Homo sapiens, U-937, 24 h
Protocol: Apoptosis was determined using MultiCyt® 4-Plex Apoptosis Screening Kit (IntelliCyt, cat. 90053). The kit provides four different apoptosis endpoints that include effector caspases 3 and 7 activation, phosphatidylserine surface expression, mitochondrial membrane depolarization and cell membrane integrity. […] Cell membrane damage is detected by the uptake of a proprietary DNA intercalating agent analogous to 7-aminoactinomycin D.
384-well plates (Greiner 784201), pre-loaded with 5 μL cRPMI were stamped using a pintool with 100 nl of DMSO-solubilized compounds from the 100-fold concentrated stock solution. Next, 5 μL U937 cells (2 × 10^6/ml in cRPMI) were added to wells and mixed, and plates were foil-sealed. Compounds (Table 1) were tested in dose response at final concentrations ranging from 15.2 nM to 100 μM (1% DMSO final). Vehicle (DMSO) was used as a negative control. After 24 h incubation under culture conditions, the IntelliCyt MultiCyt 4-Plex Apoptosis Screening Kit was used according to manufacturer's protocol. The data were acquired using iQue Screener Platform (IntelliCyt). Singlet cell populations were analyzed for individual measures of apoptosis, and gates were set based on control histograms.

U937 cells [6] = assay: F-cAMP efflux assay in U937 cells (screen and dose response); type: cell-based, human; settings: for Outcome of screen for inhibitors of cAMP efflux after dose-response validation: screen at 10 μM, 51 hits retested in dose-response
Protocol: (§2) Cells were loaded with F-cAMP as described. Briefly, cells were resuspended in a hypertonic solution containing 10% polyethylene glycol 1000, 0.5 M sucrose, and 250 μM F-cAMP in cRPMI without FBS, incubated 10 min at room temperature, washed, and then resuspended in hypotonic solution (60% cRPMI, 40% sterile water) for 2 min at room temperature to complete F-cAMP loading. Cells were resuspended in cRPMI and equilibrated for 2 h under normal culture conditions.
(§3) Samples were evaluated using Accuri C6 or BD FACScan flow cytometers (Becton Dickinson (BD)).
Liquid handling was accomplished with a Biomek FX Multichannel system (Beckman-Coulter, Fullerton, CA, USA) and/or Biotek Multiflo system (Winooski, VT, USA). F-cAMP-loaded U937 cells (2000/well) were seeded into 384-well polypropylene plates (Greiner Bio-One 784201, Monroe, NC, USA). Cells were treated with compounds (10 μM final concentration) from the Prestwick Chemical Library (Illkirch, France) or […] Collection (MicroSource, Gaylordsville, CT, USA) delivered by pintool (V&P Scientific, San Diego, CA), at a final DMSO concentration of 1%. Plates were foil-sealed with AlumaSeal 384™ (Excel Scientific, Victorville, CA, USA), and incubated inverted overnight. Sample plates were analyzed by CyAn flow cytometers (Beckman-Coulter) configured with HyperCyt high-throughput auto-sampler systems (IntelliCyt, Albuquerque, NM, USA) using 488 nm excitation to assess FL-1 (530/40) MFI levels.
Data were analyzed with HyperView software (IntelliCyt) and time-gated to determine data from each well. Wells with ≥ 50 events were evaluated for FL-1 MFI values. Samples with MFI values ≥ 2 standard deviations above the plate mean negative control values were considered “hit” compounds.
To validate sample data and decrease the number of false-positive hits, compounds were assayed in a high-throughput dose response assay. Plates were set up as in the HTS, with the exception that the plate formats contained 10-well dose responses for each hit compound, at final concentrations ranging from 30 μM to 4 nM.
The dose response data were normalized for percent response based on sample FL-1 MFI values in comparison to untreated F-cAMP-loaded cells kept at 4°C overnight or at time = 0, and were fitted by GraphPad Prism 5 software (GraphPad Software, La Jolla, CA, USA) for sigmoidal dose response with constrained hill slope = 1.

Reh = assay: CellTiter-Glo cell viability; type: cell-based; settings: Homo sapiens, overnight, n = 6, ± SEM, read-out: Compound EC50, Reh (cell viability)
Protocol: as §1

B-ALL cell lines [7] = assay: F-cAMP efflux in B-ALL cell lines with MK-571; type: cell-based, human; settings: 37°C
Protocol: as §2, §3

U937 cells [8] = assay: Cell viability by 7-AAD exclusion with or without KH7; type: cell-based, human; settings: overnight, 6 μM KH7, 7-AAD staining
Protocol: Cells treated with ICE and control samples were incubated with 1 μg/ml of 7-AAD for 20-60 minutes at 4°C on a rotator in the dark, and analyzed by flow cytometry according to manufacturer instructions. Gates were set on 7-AAD negative and positive events based on histograms. Percent of 7-AAD negative events is shown.

[9] = mean of converged EC50s of six patient samples, read-out: Compound EC50 (Sample means), cell viability
[10] = primary B-ALL sample, duplicate, ± SEM, read-out: Compound EC50 (Patient no. 1), cell viability
[11] = primary B-ALL sample, duplicate, ± SEM, read-out: Compound EC50 (Patient no. 2), cell viability
[12] = primary B-ALL sample, duplicate, ± SEM, read-out: Compound EC50 (Patient no. 3), cell viability
[13] = primary B-ALL sample, duplicate, ± SEM, read-out: Compound EC50 (Patient no. 5), cell viability
[14] = primary B-ALL sample, duplicate, ± SEM, read-out: Compound EC50 (Patient no. 6), cell viability
[15] = mean of converged EC50s, read-out: Compound EC50, Means (of the apoptosis endpoints)
[16] = n = 4, ± SEM, read-out: Compound EC50, Cell membrane damage
[17] = n = 4, ± SEM, read-out: Compound EC50, Mitochondrial depolarization

Compound: 4-((N'-2-methylphenyl)ureido)-phenylacetyl-L-leucyl-L-aspartyl-L-valyl-L-prolyl-L-alanyl-L-alanyl-L-lysine-FITC [LDV-FITC]
- Kd (VLA-4; high affinity state, read-out: Kd for physiologically activated VLA-4): 0.001 to 0.002 µM
- Kd (VLA-4; low affinity state, read-out: Kd for binding to resting VLA-4): ~0.012 µM

- EC50 (RS4;11): 33.7 ± 10.6 µM
- EC50 (U937 cells [2]): 7.99 ± 3.24 µM
- EC50 (U937 cells [5]; [15]): 24.6 µM
- EC50 (U937 cells [5]; n = 4, ± SEM, read-out: Compound EC50, Annexin-V +): 29.5 ± 1.85 µM
- EC50 (U937 cells [5]; [17]): 25.7 ± 0.82 µM
Compound: C[C@H]1[C@H](OC(=O)CCC(=O)O)O[C@@H]2O[C@@]3(C)CC[C@H]4[C@H](C)CC[C@@H]1[C@@]24OO3 [Artesunate]
- EC50 (B-ALL cell lines [1]): 153 µM
- Sensitivity of B-ALL lines compared with U937 cells (B-ALL cell lines [1]): decreased sensitivity
- EC50 697: 99.6 ± 27.7 µM
- EC50 (Sup B15): 326 ± 88.5 µM
- Anticancer effects [3]: ↓metastasis/migration [80, 83]; ↓VEGF expression/angiogenesis [70, 76, 80]; ↓cyclins B & D1, Cdks 2, 4, 6[70]; ↑p21, p27 [70]
- Potential mechanism(s) of action [3]: ↓NFκB & AP-1 activation [83, 130, 131]; ↓nitric oxide, cAMP-mediated, Wnt/β-catenin, PI3K/Akt signaling [81, 130, 131]; ↑ROS [70, 72, 78]
- EC50 (normal human PBMCs): 280 ± 91.4 µM
- EC50 [4, 9]: 84.6 µM
- EC50 [4, 10]: 116 ± 55.2 µM
- EC50 [4, 11]: 115 ± 22.7 µM
- EC50 [4, 12]: 66 ± 27.6 µM
- EC50 [4, 13]: 24.6 ± 12.2 µM
- EC50 [4, 14]: 100 ± 48.7 µM
- EC50 (U937 cells [5]; [16]): 18.6 ± 1.89 µM

- EC50 (RS4;11): 26.2 ± 7.94 µM
- EC50 (U937 cells [2]): 1.32 ± 0.58 µM
- EC50 (U937 cells [5]; [15]): 16.4 µM
- EC50 (U937 cells [5]; [17]): 9.21 ± 7.52 µM
Compound: C[C@H]1[C@@H](O)O[C@@H]2O[C@@]3(C)CC[C@H]4[C@H](C)CC[C@@H]1[C@@]24OO3 [Dihydroartemisinin]
- EC50 (B-ALL cell lines [1]): 74.4 µM
- Sensitivity of B-ALL lines compared with U937 cells (B-ALL cell lines [1]): decreased sensitivity
- EC50 697: 55.5 ± 16.8 µM
- EC50 (Sup B15): 141 ± 49.5 µM
- Anticancer effects [3]: ↓VEGF expression & angiogenesis [99, 101, 102]; ↓cyclin B, CDC25 [87]
- EC50 (normal human PBMCs): 128 ± 34.2 µM
- EC50 [4, 9]: 46.6 µM
- EC50 [4, 11]: 47.5 ± 12.2 µM
- EC50 [4, 12]: 83.2 ± 74.2 µM
- EC50 [4, 13]: 11.5 ± 5.02 µM
- EC50 [4, 14]: 44.1 ± 32.2 µM
- Cell viability vs. vehicle treated sample at lower concentrations ([4]; samples from patients no. 1 and no. 5): significant increase in cell viability
- EC50 (U937 cells [5]; [16]): 23.7 ± 19.4 µM

Compound: C[C@@H]1CC[C@H]2[C@@H](C)C(=O)O[C@@H]3O[C@@]4(C)CC[C@@H]1[C@]32OO4 [artemisinin]
- Outcome of screen for inhibitors of cAMP efflux after dose-response validation (U937 cells [6]): potentially active

Compound: CC1=NCCc2c1[nH]c1cc(O)ccc21 [harmalol]
- Outcome of screen for inhibitors of cAMP efflux after dose-response validation (U937 cells [6]): potentially active

Compound: O=C1c2ccc(O)c(O)c2C(=O)c2c(O)ccc(O)c21 [quinalizarin]
- Outcome of screen for inhibitors of cAMP efflux after dose-response validation (U937 cells [6]): potentially active

- EC50 (U937 cells [2]): 94.2 ± 35.5 µM
- EC50 (U937 cells [6]; Homo sapiens, U-937, read-out: EC50 for cAMP efflux blocking, U937 cells loaded with F-cAMP, overnight, 37°C): ~30 µM
Compound: CN(C)C(=O)CCSC(SCCC(=O)O)c1cccc(/C=C/c2ccc3ccc(Cl)cc3n2)c1 (stereo not shown) [MK-571]
- EC50 (B-ALL cell lines [1]): 165 µM
- EC50 697: 126 ± 109 µM
- EC50 (Reh): 226 ± 93.6 µM
- EC50 (Sup B15): 144 ± 47.8 µM
- Active F-cAMP efflux in the presence of MK-571 (B-ALL cell lines [7]; Group 1: Sup-B15 and MHH-Call3, overnight): blocked completely
- F-cAMP removed with MK-571 (B-ALL cell lines [7]; Group 2: Reh and RS4;11, overnight, 75-80% without MK-571): 30-40%
- F-cAMP removed with MK-571 (B-ALL cell lines [7]; Group 3: 697 and Nalm-6, overnight, > 90% without MK-571): 60-70%
- Block of loss of F-cAMP probe fluorescence (U937 cells [6]; U937 cells, 24 h, 37°C): A significant part of this loss was blocked
- EC50 (normal human PBMCs): 157 ± 66.4 µM
- EC50 [4, 9]: 298 µM
- EC50 [4, 10]: 298 ± 140 µM

Compound: CC(Sc1nc2ccccc2[nH]1)C(=O)N/N=C/c1cc(Br)ccc1O (stereo not shown) [KH7]
- Effect of KH7 on cell viability loss induced by ICE (U937 cells [8]): significant protective effect
